Assay results as given in US20210017180A1, “PYCLEN-BASED MACROCYCLIC LIGANDS, CHELATES THEREOF AND USES THEREOF” (CENTRE NATIONAL DE LA RECHERCHE SCIENTIFIQUE, priority 2018, published 2021).

Assay: Brightness B = Φ * εmax
Format: physicochemical
Settings: versus chelate of unsubstituted ligand (Table 7)
Description: • “Brightness (B)” refers to the amount of radiation emitted by a chromophore or dye. In the case of one-photon absorption, B is defined as the product of the emission quantum yield (Φ) by the molar absorption coefficient (ε), i.e., B=ε·Φ, at a given excitation wavelength. In the case of two-photon absorption, B is defined as the product of the emission quantum yield (Φ) by the cross section (σ), i.e., […], at a given excitation wavelength. • “Carboxylate ester” refers to an ester of a molecule, said molecule comprising at least one carboxylic acid function (—COOH), wherein the ester is formed by esterification of at least one carboxylic acid function of the molecule. Preferred carboxylic esters are methyl esters. “Mono-ester”, “di-ester” and “tri-ester” respectively refers to esters wherein exactly one, two and three carboxylic acid functions have been esterified. • “Carboxylate salt” refers to a salt of a molecule, said molecule comprising at least one carboxylic acid function (—COOH), wherein the salt is formed by deprotonation of at least one carboxylic acid function of the molecule. Preferred carboxylic salts are potassium or sodium salts, more preferably potassium salts. […]

For `COCCOCCOCCOc1ccc(C#Cc2cc(CN3CCN(CC(=O)[O-])Cc4cccc(n4)CN(Cc4cc(C#Cc5ccc(OCCOCCOCCOC)cc5)cc(C(=O)[O-])n4)CC3)nc(C(=O)[O-])c2)cc1.[K+].[K+].[K+]` [Complex S1, potassium 6,6′-((9-(carboxylatomethyl)-3,6,9-triaza-1(2,6)-pyridinacyclodecaphane-3,6-diyl)bis(methylene)) bis(4-((4-(2-(2-(2-methoxyethoxy)ethoxy)ethoxy)phenyl)ethynyl) picolinate)], the “increase in brightness of europium chelate on substitution of picolinate arms by chromophore” value was “about 4 fold”.
In the case of `COCCOCCOCCOc1ccc(C#Cc2cc(CN3CCN(CC(=O)[O-])CCN(Cc4cc(C#Cc5ccc(OCCOCCOCCOC)cc5)cc(C(=O)[O-])n4)Cc4cccc(n4)C3)nc(C(=O)[O-])c2)cc1.[K+].[K+].[K+]` [Complex S4, potassium 6,6′-((6-(carboxylatomethyl)-3,6,9-triaza-1(2,6)-pyridinacyclodecaphane-3,9-diyl)bis(methylene)) bis(4-((4-(2-(2-(2-methoxyethoxy)ethoxy)ethoxy)phenyl)ethynyl) picolinate)], the “increase in brightness of europium chelate on substitution of picolinate arms by chromophore” value was “about 3 fold”.
